Experimental data published in patent US20250136997A1, “COMPOSITIONS FOR SEQUESTERING ISOAMYL AMINE AND METHODS OF USE THEREFOR” (University of Louisville Research Foundation, Inc., priority 2023, published 2025).

Legend:
[1] = HPLC analysis of IAA and CA in serum and cerebrospinal fluid (CSF) of mice; type: in vivo, mouse
[2] = test system: microglia; assay: S100A8 and cleaved caspase-3 in brain microglia of treated mice (qPCR, western blot); type: in vivo, mouse
Procedure: Isolation of microglia, neuron, astrocytes, and oligodendrocytes from the brain. Mice were anaesthetized with a mixture of ketamine (16%) and xylazine (3%) by intraperitoneal injection and then sacrificed under basal conditions by transcardial perfusion with perfusion buffer (Ca^2+/Mg^2+ free HBSS containing 0.5 mM EGTA, 10 mM HEPES and 4.2 mM NaHCO3; pH 7.2). The perfused brain was removed and gently mechanically disaggregated with tweezers in dissociation buffer (HBSS containing 10 mM HEPES and 4.2 mM NaHCO3 supplemented with Type I collagenase (0.05%), Dispase II (25 mg/ml), DNase I (2.5 mg/ml), trypsin inhibitor ([…]); pH 7.5) followed by incubation at 37° C. for 1 hour. The tissue homogenate was centrifuged at 1,350×g for 5 minutes at 4° C. […]
Quantitative Real-Time PCR (qPCR) analysis of mRNA expression. […] For analysis of gene mRNA expression, […] of total RNA was reverse transcribed by SuperScript III reverse transcriptase (Invitrogen) and quantitation was performed using primers (Eurofins) with SSOADVANCED™ Universal SYBR Green Supermix (BioRad); GAPDH was used for normalization. […] Analysis and fold-change were determined using the comparative threshold cycle (Ct) method. […] Setting the expression value of GAPDH to 1.0, the relative expression values were calculated as […]. The change in mRNA expression was calculated as fold-change. […]

[3] = Interaction of S100p1-G and metabolite: streptavidin pull-down from BV2 cells and LC-MS; type: cell-based, mouse
Procedure: Interaction of S100p1-G and metabolite. Microglial BV2 cells (2×10^6) were transfected with biotinylated oligo S100p1-G or mutant using Lipofectamin RNAiMAX Reagent (Thermo Fisher) according to the manufacturer's instructions overnight at 37° C. […] of aged mouse fecal supernatant (from one-gram feces) was added into the cell growth medium. After six hours, the cells were collected in RIPA lysis buffer. […] of cell lysate was incubated with […] of DYNABEADS® Streptavidin beads (Thermo Fisher) at room temperature for 1 h. The bio-oligo complex was eluted with biotin (4 mg/ml)) in 25 mM Tris-HCL containing 0.3 M NaCl (PH 8.5) at 95° C. for 5 minutes. Metabolite analysis was performed with LC-MS.

[4] = Morris water maze (MWM) test; type: in vivo, mouse
Procedure: Morris water maze (MWM) test. Mice were trained in a 122 cm diameter, 50 cm height open-field water maze with non-reflective interior surfaces. The pool water was filled with water maintained at 25±1° C. and mixed with non-toxic white tempera paint. Distinctive and extra-maze cues were marked on the wall at specific locations and were visible to the mice in the maze. Mice were removed from cages, placed into the water from quasi-random start points and allowed a maximum of 60 seconds to probe the escape platform. The inter interval of each trail remained for 15 seconds. For four consecutive days, four trials (training) were recorded each day with a final test on day 5 (FIG. 4A). Performance was evaluated by the mean escape latencies base on every training trial (Vorhees and Williams, 2006).

[5] = IAA to young mice, phage to aged mice, oral gavage two months

CC(C)CCN [IAA, isoamylamine]
pass through the blood-brain barrier (BBB) ([1]; aged mice, serum and CSF, gut-derived metabolite): higher amounts than CA | IAA level in the serum (HPLC) ([1]; young mice gavage-given IAA, aged mice gavage-given phage^TSD-27): increased | S100A8 and cleaved caspase-3 in the microglia ([2]; all five major regions of the brain, IAA oral gavage): induced | metabolite within the Bio-S100p1-G complex (LC-MS) ([3]; cell lysates): only IAA interacts with S100p1-G | swim speeds in MWM ([4]; IAA (0.5 g/kg) to young mice, phage^TSD-27 (1×10^9 pfu/mouse) to aged mice, oral gavage every other day, two months): reduced | latency time to reach the platform in MWM [4, 5]: induced | memory and learning (normalized test path length, MWM) [4, 5]: induced the memory and learning loss

S100p1-G: CTGTGGGCAG CTGGCCAAGC (SEQ ID NO: 8), S100A8 promoter −57 . . . −38 (DNA CTGTGGGCAGCTGGCCAAGC; chemistry not given here)
IAA in CSF (HPLC) ([1]; aged mice, intravenous oligo, twice a week for 2 months): decline | expression of S100A8 and cleaved caspase-3 in microglia cells (qPCR, western blot) ([2]; young mice, gavage every other day for 2 months): prevented | IAA recruited to the oligo complex (LC-MS after pull-down) ([3]; microglial cells, gut fecal supernatant, 6 h, biotinylated oligo): recruited | memory and spatial learning (MWM) ([4]; aged mice, intravenous, twice a week for 2 months): recovered
